These results are taken from patent US20090022714A1, “Combination methods of inhibiting tumor growth with a vascular endothelial growth factor receptor antagonist” (ImClone Systems, Inc., priority 2001, published 2009).

This assay addresses T1, KDR (VEGFR-2) (Homo sapiens, UniProt P35968).
T1 construct: the cDNA for KDR (VEGFR-2) extracellular domain is fused in-frame with the cDNA for human placental AP; made in house; host or cells: stably transfected NIH 3T3 cells, purified from supernatant on anti-AP antibody
The assay can be described thus: BIAcore analysis of p1C11 scFv, c-p1C11 and VEGF. The class given is binding. As for the experimental part: The binding kinetics of antibodies to KDR (VEGFR-2) were measured using BIAcore biosensor (Pharmacia Biosensor). […] Sensorgrams were obtained at each concentration and were evaluated using a program, BIA Evaluation 2.0, to determine the rate constants kon and koff. Kd was calculated as the ratio of rate constants koff/kon.
On the technique in general: In SPR one partner is held on a chip, and binding of the other changes the refractive index at the surface.

T1 sequence (P35968 20-764 limits assumed): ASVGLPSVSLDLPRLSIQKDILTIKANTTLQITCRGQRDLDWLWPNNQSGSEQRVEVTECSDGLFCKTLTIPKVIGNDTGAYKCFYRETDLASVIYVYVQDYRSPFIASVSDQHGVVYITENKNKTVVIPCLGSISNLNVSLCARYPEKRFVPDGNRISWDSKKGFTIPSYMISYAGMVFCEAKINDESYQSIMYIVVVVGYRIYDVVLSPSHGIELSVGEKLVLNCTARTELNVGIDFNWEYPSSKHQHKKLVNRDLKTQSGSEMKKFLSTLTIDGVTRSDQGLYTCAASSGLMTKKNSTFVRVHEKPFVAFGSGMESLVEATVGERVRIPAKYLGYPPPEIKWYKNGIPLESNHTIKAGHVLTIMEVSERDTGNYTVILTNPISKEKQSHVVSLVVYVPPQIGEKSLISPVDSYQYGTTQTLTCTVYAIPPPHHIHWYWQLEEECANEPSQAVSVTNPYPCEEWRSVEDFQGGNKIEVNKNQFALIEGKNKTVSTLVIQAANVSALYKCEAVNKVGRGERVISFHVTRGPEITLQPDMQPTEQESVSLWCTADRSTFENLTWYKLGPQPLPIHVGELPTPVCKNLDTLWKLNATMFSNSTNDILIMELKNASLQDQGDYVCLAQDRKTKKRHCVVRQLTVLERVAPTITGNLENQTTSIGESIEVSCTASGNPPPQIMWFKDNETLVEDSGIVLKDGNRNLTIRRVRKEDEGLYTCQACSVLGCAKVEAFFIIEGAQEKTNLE

Regarding VEGF [reference compound], the koff is 1.81 10^−4 s^−1 and the kon was 1.87 10^5 M^−1s^−1.
